For 8 compounds, IC50 and Inhibition results are on record in ChEMBL document CHEMBL2073909 (J Pharmacol Exp Ther, 1999).

Data set [1] concerns the target T1, Hepatic sodium/bile acid cotransporter (Homo sapiens, UniProt Q14973).
T1 sequence (Q14973 whole entry): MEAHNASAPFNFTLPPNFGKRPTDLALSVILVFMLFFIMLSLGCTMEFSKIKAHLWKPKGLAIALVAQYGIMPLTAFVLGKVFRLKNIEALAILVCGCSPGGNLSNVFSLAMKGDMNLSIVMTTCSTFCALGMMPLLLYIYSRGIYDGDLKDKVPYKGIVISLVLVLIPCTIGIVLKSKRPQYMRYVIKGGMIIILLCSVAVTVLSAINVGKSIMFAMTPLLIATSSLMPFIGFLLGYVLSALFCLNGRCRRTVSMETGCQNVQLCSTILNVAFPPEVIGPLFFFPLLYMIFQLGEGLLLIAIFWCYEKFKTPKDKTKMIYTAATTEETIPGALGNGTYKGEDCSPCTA
The format is functional, cell-based, HeLa.

The target in data set [2] is T1, Hepatic sodium/bile acid cotransporter. As to the kind of experiment: TP_TRANSPORTER: inhibition of Taurocholate uptake (Taurocholate: 5 uM, Deoxycholate: 100 uM) in NTCP-expressing HeLa cells. The format is functional, cell-based.
Data set [3] shares this target. Briefly: TP_TRANSPORTER: inhibition of Taurocholate uptake (Taurocholate: 5 uM, Progesterone: 100 uM) in NTCP-expressing HeLa cells. The format is functional, cell-based.
The target is the same in data set [4]. Briefly: TP_TRANSPORTER: inhibition of Taurocholate uptake (Taurocholate: 5 uM, Chlorpropamide: 100 uM) in NTCP-expressing HeLa cells. The format is functional, cell-based.

As a reminder, the IC50 is the midpoint of a concentration-inhibition curve. A lower IC50 goes with inhibition by little substance. On to `CC(=O)N1CCN(c2ccc(OCC3COC(Cn4ccnc4)(c4ccc(Cl)cc4Cl)O3)cc2)CC1` (stereo not drawn) [KETOCONAZOLE], for which, in data set [1], the IC50 was determined as 264 µM.

In the case of `O=C1OC(c2ccc(O)c(S(=O)(=O)O)c2)(c2ccc(O)c(S(=O)(=O)O)c2)c2c(Br)c(Br)c(Br)c(Br)c21` [SULFOBROMOPHTHALEIN SODIUM], in data set [1], the IC50 is 7.3 µM.

For `C[C@H](CCC(=O)O)[C@H]1CC[C@H]2[C@@H]3CC[C@@H]4C[C@H](O)CC[C@]4(C)[C@H]3C[C@H](O)[C@]12C` [DEOXYCHOLIC ACID], in data set [2], the Inhibition result was “inhibitor [(at a rough estimate) 70 % inhibition]”. `CC(C)NCC(O)COc1cccc2ccccc12` (stereo not drawn) [PROPRANOLOL] showed an IC50 in data set [1] of 5.5 µM.

In turn, `C[C@H](CCC(=O)O)[C@H]1CC[C@H]2[C@@H]3[C@@H](O)C[C@@H]4C[C@H](O)CC[C@]4(C)[C@H]3CC[C@]12C` [URSODIOL] showed an IC50 in data set [1] of 3.6 µM. Consider `CC(=O)[C@H]1CC[C@H]2[C@@H]3CCC4=CC(=O)CC[C@]4(C)[C@H]3CC[C@]12C` [PROGESTERONE], for which the Inhibition result in data set [3] was “inhibitor [(at a rough estimate) 80 % inhibition]”.

For `CC(C)NC[C@H](O)COc1cccc2ccccc12` [LEVOPROPRANOLOL], the IC50 in data set [1] is 6.1 µM. For `CCCNC(=O)NS(=O)(=O)c1ccc(Cl)cc1` [CHLORPROPAMIDE], the Inhibition entry in data set [4] was “inhibitor [(at a rough estimate) 30 % inhibition]”.
